Where “and” joins values, the source holds several entries; their conditions need not be identical. Equal values may be shown once. Entries after “also recorded” stand apart in the source; their conditions may differ.
Key:
[1] = tested on: patients with rheumatoid arthritis (RA); test: Multicenter, randomized, double-blind, placebo-controlled study of D2E7 40 mg sc every other week added to current anti-rheumatic therapies: efficacy (ACR response); assay type: in vivo, human
Procedure: (§1) A study was designed and conducted to investigate the safety and efficacy of D2E7 40 mg administered every other week to patients with RA whose disease was not adequately treated with their current anti-rheumatic therapies (including accepted DMARDs, NSAIDs, or steroids); and was a multicenter, randomized, double-blind, placebo-controlled study in which D2E7 was subcutaneously (sc) administered every other week for up to 24 weeks at a dosage of 40 mg to patients with rheumatoid arthritis (RA) whose disease was not adequately treated with their current anti-rheumatic therapies. Anti-rheumatic therapies permitted for use during the study included accepted disease-modifying anti-rheumatic drugs (DMARDs), non-steroidal anti-inflammatory drugs (NSAIDs), or steroids. Despite using anti-rheumatic therapies, patients must have had active disease documented at both the screening and baseline visits. Doses of DMARDs, as well as concomitant prednisone (<10 mg daily) and NSAIDs, were required to be stable for at least 28 days prior to screening. Additionally, patients using azathioprine and/or cyclosporine discontinued these therapies and underwent a 28-day washout period before screening. At the baseline visit, patients were randomized to D2E7 or placebo and this signified the start of the 24-week placebo-controlled period. Patients were examined at Weeks 2, 4, 8, 12, 16, 20 and 24 of the study.
Patients were inadequately treated with their current anti-rheumatic therapies and had active RA, defined as ≧6 swollen joints and ≧9 tender joints. Additionally, patients using glucocorticoids were allowed into the study if the dose was equivalent to <10 mg/day prednisone and had remained unchanged for at least 28 days.
D2E7 was supplied in 2-mL glass vials (the concentration of D2E7 in each vial was 25 mg/mL (ie, 40 mg/1.6 mL)), each containing 40 mg D2E7/1.6 mL solution for injection. D2E7 was manufactured and supplied by Ebewe Arzneimittel GmbH, in Unterach, Austria. McKesson, HBOC Biosciences, in Rockville, Md., USA, packaged, labeled, stored and distributed D2E7 to the investigators at each site for this study. D2E7 was self-administered as a single sc injection of 40 mg every other week for a period of 24 weeks. The concentration of study drug was 25 mg/mL. Placebo/1.6 mL (citrate-phosphate buffer solution without D2E7) was self-administered as a single sc injection every other week for a period of 24 weeks.
Patients continued to receive their pre-study dose of anti-rheumatic therapies. Anti-rheumatic therapies permitted for use during the study included DMARDs (hydroxychloroquine, leflunomide, methotrexate, parenteral gold, oral gold and sulfasalazine, or any combination of these or other DMARDs), NSAIDs and steroids. Doses of these DMARDs as well as concomitant prednisone (<10 mg daily) and NSAIDs must have been stable for at least 28 days prior to screening.
Efficacy endpoints included: ACR20 response at Week 24; ACR50 and ACR70 at Week 24; AUC (area under the curve) of ACR20, ACR50 and ACR70 from baseline to Week 24; time to first response for ACR20, ACR50 and ACR70; numeric ACR (ACR—N); change from baseline to Week 24 in components of the ACR response criteria (tender joint count [TJC], swollen joint count [SJC], patient assessment of pain, patient and physician global assessments of disease activity, HAQ and C-reactive protein [CRP]); change from baseline to Week 24 in physical function as measured by SF-36, health utilities index (HUI), functional assessment of chronic illness therapy (FACIT) fatigue scale; Euro-QoL questionnaire; multidimensional assessment of fatigue (MAF) scale; subject summary survey; incidence and time to dose increases in background DMARD and/or steroid therapy; institution of new DMARD therapy for lack of clinical response; rheumatoid factor (RF); and morning stiffness.
Adverse events were summarized by frequency, percentage, as well as the rate per 100 patient-years. […]

[2] = tested on: patients with rheumatoid arthritis (RA); test: Same RA study: safety / adverse events; assay type: in vivo, human
Procedure: as §1, with “Additionally, patients using azathioprine and/or cyclosporine discontinued these therapies and underwent a 28-day washout period before screening. At the baseline visit, patients were randomized to D2E7 or placebo and this signified the start of the 24-week placebo-controlled period. Patients were examined at Weeks 2, 4, 8, 12, 16, 20 and 24 of the study.” left out
Adverse events were summarized by frequency, percentage, as well as the rate per 100 patient-years. […] All other efficacy variables were summarized descriptively (statistical characteristics, frequencies, percentages, confidence intervals) and analyzed by exploratory two-sided statistical tests. […]

[3] = Week 2, full analysis set, excluding Site #7
[4] = Week 4, full analysis set, excluding Site #7
[5] = Week 8, full analysis set, excluding Site #7
[6] = Week 12, full analysis set, excluding Site #7
[7] = Week 16, full analysis set, excluding Site #7
[8] = Week 20, full analysis set, excluding Site #7
[9] = Week 24, full analysis set, excluding Site #7
[10] = Week 24, subgroup Three or more DMARDs
[11] = Week 24, subgroup concomitant Antimalarial
[12] = Week 24, subgroup concomitant Leflunomide
[13] = Week 24, subgroup concomitant Methotrexate
[14] = Week 24, subgroup concomitant Sulfasalazine
[15] = through Week 24, full analysis set, excluding Site #7

D2E7: recombinant, neutralizing human anti-hTNFα antibody; VL region SEQ ID NO: 1, VH region SEQ ID NO: 2
ACR50 response, patients responding ([1]; LOCF Week 24, N = 315): 95 (30.2) N (%)
ACR70 response, patients responding ([1]; LOCF Week 24, N = 315): 48 (15.2) N (%)
ACR-N, Mean ± SD ([1]; LOCF Week 24, N = 315): 21.2 ± 55.3
Time to response ACR20: patients responding for the first time [1, 3]: 106 (33.7) N (%)
Time to response ACR50: patients responding for the first time [1, 3]: 31 (9.8) N (%)
Time to response ACR70: patients responding for the first time [1, 3]: 9 (2.9) N (%)
Time to response ACR20: patients responding for the first time [1, 4]: 51 (16.2) N (%)
Time to response ACR50: patients responding for the first time [1, 4]: 31 (9.8) N (%)
Time to response ACR70: patients responding for the first time [1, 4]: 12 (3.8) N (%)
Time to response ACR20: patients responding for the first time [1, 5]: 52 (16.5) N (%)
Time to response ACR50: patients responding for the first time [1, 5]: 34 (10.8) N (%)
Time to response ACR70: patients responding for the first time [1, 5]: 12 (3.8) N (%)
Time to response ACR20: patients responding for the first time [1, 6]: 17 (5.4) N (%)
Time to response ACR50: patients responding for the first time [1, 6]: 20 (6.3) N (%)
Time to response ACR70: patients responding for the first time [1, 6]: 18 (5.7) N (%)
Time to response ACR20: patients responding for the first time [1, 7]: 13 (4.1) N (%)
Time to response ACR50: patients responding for the first time [1, 7]: 20 (6.3) N (%)
Time to response ACR70: patients responding for the first time [1, 7]: 18 (5.7) N (%)
Time to response ACR20: patients responding for the first time [1, 8]: 12 (3.8) N (%)
Time to response ACR50: patients responding for the first time [1, 8]: 9 (2.9) N (%)
Time to response ACR70: patients responding for the first time [1, 8]: 7 (2.2) N (%)
ACR20 response, patients responding ([1]; Week 24, 40 mg sc every other week, N = 315): 167 (53.0) N (%)
ACR20 response (primary efficacy endpoint) ([1]; Week 24, D2E7 added to current anti-rheumatic therapies): 53.0%
ACR50 response, patients responding ([1]; Week 24, N = 315): 92 (29.2) N (%) and 92 (29.2)^a N (%)
ACR70 response, patients responding ([1]; Week 24, N = 315): 47 (14.9) N (%) and 47 (14.9)^a N (%)
ACR-N, Mean ± SD ([1]; Week 24, N = 315): 20.3 ± 55.2
Time to response ACR20: patients responding for the first time [1, 9]: 3 (1.0) N (%)
Time to response ACR50: patients responding for the first time [1, 9]: 10 (3.2) N (%)
Time to response ACR70: patients responding for the first time [1, 9]: 8 (2.5) N (%)
ACR20 % Response ([1]; Week 24, subgroup No DMARD): 50.0%
ACR50 response ([1]; Week 24, subgroup No DMARD): 27.8%
ACR70 response ([1]; Week 24, subgroup No DMARD): 18.5%
ACR-N, Mean ± SD ([1]; Week 24, subgroup No DMARD): 12.8 ± 68.2
ACR20 % Response ([1]; Week 24, subgroup One DMARD): 55.4%
ACR50 response ([1]; Week 24, subgroup One DMARD): 31.0%
ACR70 response ([1]; Week 24, subgroup One DMARD): 16.3%
ACR-N, Mean ± SD ([1]; Week 24, subgroup One DMARD): 22.8 ± 56.0
ACR20 % Response ([1]; Week 24, subgroup Other DMARDs): 52.0%
ACR50 response ([1]; Week 24, subgroup Other DMARDs): 24.0%
ACR70 response ([1]; Week 24, subgroup Other DMARDs): 16.0%
ACR-N, Mean ± SD ([1]; Week 24, subgroup Other DMARDs): 25.3 ± 33.9
ACR20 % Response [1, 10]: 45.5%
ACR50 response [1, 10]: 18.2%
ACR70 response [1, 10]: 9.1%
ACR-N, Mean ± SD [1, 10]: 20.1 ± 37.2
ACR20 % Response ([1]; Week 24, subgroup Two DMARDs): 50.0%
ACR50 response ([1]; Week 24, subgroup Two DMARDs): 27.3%
ACR70 response ([1]; Week 24, subgroup Two DMARDs): 9.1%
ACR-N, Mean ± SD ([1]; Week 24, subgroup Two DMARDs): 19.5 ± 42.3
ACR20 % Response [1, 11]: 50.7%
ACR50 response [1, 11]: 29.3%
ACR70 response [1, 11]: 12.0%
ACR-N, Mean ± SD [1, 11]: 20.0 ± 45.5
ACR20 % Response [1, 12]: 33.3%
ACR50 response [1, 12]: 14.3%
ACR70 response [1, 12]: 0.0%
ACR-N, Mean ± SD [1, 12]: −0.5 ± 77.5
ACR20 % Response [1, 13]: 56.7%
ACR50 response [1, 13]: 30.9%
ACR70 response [1, 13]: 15.2%
ACR-N, Mean ± SD [1, 13]: 26.5 ± 42.3
ACR20 % Response [1, 14]: 58.6%
ACR50 response [1, 14]: 34.5%
ACR70 response [1, 14]: 17.2%
ACR-N, Mean ± SD [1, 14]: 21.4 ± 53.9
Subgroup analyses of ACR20, ACR50, ACR70, ACR-N and their AUC ([1]; concomitant methotrexate, antimalarials, sulfasalazine, other DMARDs, or 0, 1, 2, ≧3 DMARDs, vs placebo): greater improvement; also recorded: higher response compared to placebo
Improvement in RA in patients inadequately treated with existing DMARD therapies ([1]; in vivo): significant improvement
Time to response ACR20: Non-responder [1, 15]: 61 (19.4) N (%)
Time to response ACR50: Non-responder [1, 15]: 160 (50.8) N (%)
Time to response ACR70: Non-responder [1, 15]: 231 (73.3) N (%)
Time to response and AUC for ACR20, ACR50, ACR70; AUC for ACR-N; Euro-QoL, RF, MAF scale ([1]; vs placebo): improvement in therapeutic response over placebo
Tolerability when added to existing DMARD therapies ([2]; 40 mg sc every other week, up to 24 weeks): generally well-tolerated
Safety alone or in combination with other DMARDs ([2]; dose of 40 mg): safe

— patent publication US20030206898A1, “Use of anti-TNFalpha antibodies and another drug” (priority 2002, published 2003)
